For data set [1], the system named is L. donovani (MHOM-ET-67/L82) axenic amastigote. Kind of data set: Drug sensitivity assay, L. donovani axenic amastigotes. It is filed as cell-based. Conditions: Leishmania donovani, WT.
Data set [2] deals with CYP3A4 (Homo sapiens, UniProt P08684). Kind of data set: In vitro CYP inhibition, 3A4. The class given is in vitro ADME. The protocol: (§1) Compounds were screened for CYP inhibition activity using the protocol established by TCG Lifesciences (India). The activity of five CYP450 isoforms: 1A2; 2C9; 2D6, 3A4; and 2C19 was monitored in the presence of test or control (miconazole) compounds at 10 µM. Reactions were terminated after 10 min (30 min for CYP2C19) by the addition of acetonitrile, centrifuged and analysed via LC-MS/MS. […]
CYP3A4, sequence (P08684 whole entry, canonical isoform): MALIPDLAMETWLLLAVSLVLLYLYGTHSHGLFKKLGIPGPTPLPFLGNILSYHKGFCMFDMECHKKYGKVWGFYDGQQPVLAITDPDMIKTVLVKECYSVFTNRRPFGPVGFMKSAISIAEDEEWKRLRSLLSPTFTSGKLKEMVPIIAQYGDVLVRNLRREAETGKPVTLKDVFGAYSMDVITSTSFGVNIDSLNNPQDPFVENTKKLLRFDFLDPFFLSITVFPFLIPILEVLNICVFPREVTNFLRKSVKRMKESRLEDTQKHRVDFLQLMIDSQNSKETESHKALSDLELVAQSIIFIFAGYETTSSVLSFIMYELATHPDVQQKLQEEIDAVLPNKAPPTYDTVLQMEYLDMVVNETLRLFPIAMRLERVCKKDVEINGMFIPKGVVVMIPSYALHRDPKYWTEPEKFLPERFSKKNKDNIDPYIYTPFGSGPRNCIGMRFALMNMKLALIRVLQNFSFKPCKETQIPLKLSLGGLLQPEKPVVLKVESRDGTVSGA

For data set [3], the system named is T. cruzi (Sylvio X10/7A1 strain) intracellular amastigote (in Vero cells). The data set is described as follows: microbe, parasite or virus in culture. It is filed as cell-based. The conditions noted are these: for Fold-shift (relative to WT): intracellular amastigote in Vero cells; for EC50: Trypanosoma cruzi, Vero.
Data set [4] addresses T1, hERG channel (Homo sapiens, UniProt Q12809).
T1 construct: purchased Invitrogen
The data set is described as follows: In vitro hERG fluorescence polarization assay. The class given is binding. The conditions noted are these: read-out: hERG inhibition (IC50 value). As for the experimental part:
In vitro hERG fluorescence polarization assay
Compounds were assessed for potential hERG channel inhibition using the Predictor® hERG Fluorescence Polarization Assay Kit (Invitrogen), as per manufacturer’s instructions.
Compounds were screened with test compounds at concentrations ranging from 0.0003 – 30
µM. Fluorescence polarization was measured using EnVision plate reader fitted with polarized filters (excitation: 531 nm; emission: 595 nm). IC50 values were determined using GraphPad

The test system of data set [5] is T. cruzi CL Brener strain. Kind of data set: Bioluminescent mouse model of acute T. cruzi infection. Conditions: 50 mg/kg BID oral, 5 days, from 10 days post-infection, bioluminescence imaging. The class given is in vivo, BALB/c mice. The protocol: Female BALB/c mice (aged 6-7 weeks), purchased from Charles River (UK), were maintained under specific pathogen-free conditions in individually ventilated cages, with a 12 h light/dark cycle. They had access to food and water ad libitum. Mice were infected by intraperitoneal injection (i.p) of 1x10^3 bloodstream trypomastigotes derived from CB17 SCID mouse blood.
Compounds were prepared in 5% (v/v) dimethyl sulfoxide /95% HPMC suspension vehicle (0.5% (w/v) hydroxypropyl methylcellulose, 0.5% (v/v) benzyl alcohol, 0.4% (v/v) Tween 80 in Milli-Q water). Mice were treated as outlined in Fig. 5, with compounds administered by oral gavage. At different days after infection, mice were injected with d-luciferin (150 mg/kg) i.p., anaesthetized using 2.5% (v/v) gaseous isoflurane and imaged using an IVIS Spectrum (Revvity, Hopkinton, MA, USA) 5-10 min later. To estimate parasite burden, mice ventral and dorsal regions of interest were drawn using Living Image 4.7.3 to quantify bioluminescence expressed as total flux (photons/second; p/s). Regions of interest data from infected and not-infected mice were used as controls. Exposure times varied between 30 sec and 5 min, depending on the signal intensity.

Data set [6] deals with L. donovani (LdBOB) promastigote. Kind of data set: Drug sensitivity assay, L. donovani promastigotes. The class given is cell-based. Conditions: for EC50: Leishmania donovani.
For data set [7], the system named is T. cruzi (Sylvio X10/7A1 strain) epimastigote. Kind of data set: microbe, parasite or virus in culture. It is filed as cell-based. Conditions: for Fold-shift (relative to WT): epimastigote; for EC50: Trypanosoma cruzi.
Data set [8] concerns the target T2, human KRS (Homo sapiens, UniProt Q15046).
T2 construct: made in house
The data set is described as follows: Human KRS inhibition assay using BIOMOL Green. The conditions noted are these: for IC50: recombinant HsKRS, 3.5 μM ATP, 6 μM L-lysine, read-out: IC50 values (95% CI). The class given is biochemical. The protocol:
Cloning, expression and purification of recombinant HsKRS has been described previously ([21]).
The enzymatic activity of recombinant KRS was determined by monitoring the concentration of pyrophosphate released during the first step of the reaction catalyzed by recombinant TcKRS1. The pyrophosphate formed was converted to two inorganic phosphate molecules using a pyrophosphatase enzyme and concentrations of the resulting phosphate were measured using the BIOMOL Green reagent (Enzo Life Sciences). All screening assays were performed in 384-well, clear, flat-bottom plates (Greiner) at room temperature (~23°C) in 50 μl reaction volumes.
To generate IC50 data for test compounds, 10-point inhibitor dose-response curves were prepared in 384-well assay plates using an ECHO 550 acoustic dispenser (Labcyte).
All assays were performed by adding 25 μl of assay buffer with enzyme to compound-containing assay wells before the reaction was initiated with the addition of a 25 μl substrate mixture containing L-lysine, ATP and pyrophosphatase. […] Following a 6–h reaction at room temperature, the assays were stopped by the addition of 50 μl BIOMOL Green. The BIOMOL Green signal was allowed to develop for 30 min before the absorbance of each well was read at 650 nm using a PheraStar plate reader (BMG). All liquid-dispensing steps were carried out using a Thermo Scientific WellMate dispenser (Matrix).
All IC50 curve fitting was undertaken using ActivityBase XE (version 7.7.1) from IDBS. Percentage inhibition curves for TcKRS1 and human KRS, were fitted to a four-parameter logistic dose-response equation (XLfit model 203), with pre-fitting for all four parameters, using the equation below, where A is no inhibition, B is maximum inhibition, C is the Log10 (IC50), D is the Hill slope and x is the inhibitor concentration. […]

In data set [9] the test system is T. b. brucei BSF. The data set is described as follows: Drug sensitivity assay, T. b. brucei bloodstream forms. It is filed as cell-based. Conditions: for EC50: Trypanosoma brucei.
Data set [10] in a line: DMU759 exposure in mice after oral dosing. The class given is in vivo. The conditions noted are these: 50 mg/kg oral. The protocol:
DMU759 (50 mg/kg) was orally administered to BALB/c mice. The dose solution was prepared on the day of dosing, and the vehicle was 0.5% (w/v) hydroxypropyl methylcellulose and 0.4% […]. Blood samples (10 μl) were collected from the tail vein of each animal at defined intervals then placed into 1.2 mL cryovials containing deionized water (90 μl) and stored at −80°C until analysis. Blood levels of DMU759 in mouse blood were determined by UPLC-MS/MS, as previously described ([58]).

Data set [11] has as its target CYP2C9 (Homo sapiens, UniProt P11712). The data set is described as follows: In vitro CYP inhibition, 2C9. The class given is in vitro ADME. The protocol:
as §1

Where [12] appears, read: read-out: EC50 value, KRS1 OE, intracellular amastigote in Vero cells.
Where [13] appears, read: read-out: EC50 value, KRS1 S319L, intracellular amastigote in Vero cells.
[14] abbreviates: read-out: EC50 value, WT, intracellular amastigote in Vero cells.
Setting [15] is: KRS1 OE, promastigote, read-out: EC50 value.
Setting [16] is: WT, promastigote, read-out: EC50 value.
Setting [17] is: read-out: EC50 value, KRS1 S324L, promastigote.
The mark [18] stands for this setting: read-out: EC50 value, KRS1 OE (overexpressing), epimastigote.
Where [19] appears, read: read-out: EC50 value, KRS1 S319L, epimastigote.
The mark [20] stands for this setting: read-out: EC50 value, WT, epimastigote.
Where [21] appears, read: KRS1 OE, BSF, read-out: EC50 value.
The mark [22] stands for this setting: read-out: EC50 value, KRS1 S319L (as printed in Table S1), BSF.

Where two headings read alike, the source gives them in different places.

T2 sequence (Q15046 whole entry): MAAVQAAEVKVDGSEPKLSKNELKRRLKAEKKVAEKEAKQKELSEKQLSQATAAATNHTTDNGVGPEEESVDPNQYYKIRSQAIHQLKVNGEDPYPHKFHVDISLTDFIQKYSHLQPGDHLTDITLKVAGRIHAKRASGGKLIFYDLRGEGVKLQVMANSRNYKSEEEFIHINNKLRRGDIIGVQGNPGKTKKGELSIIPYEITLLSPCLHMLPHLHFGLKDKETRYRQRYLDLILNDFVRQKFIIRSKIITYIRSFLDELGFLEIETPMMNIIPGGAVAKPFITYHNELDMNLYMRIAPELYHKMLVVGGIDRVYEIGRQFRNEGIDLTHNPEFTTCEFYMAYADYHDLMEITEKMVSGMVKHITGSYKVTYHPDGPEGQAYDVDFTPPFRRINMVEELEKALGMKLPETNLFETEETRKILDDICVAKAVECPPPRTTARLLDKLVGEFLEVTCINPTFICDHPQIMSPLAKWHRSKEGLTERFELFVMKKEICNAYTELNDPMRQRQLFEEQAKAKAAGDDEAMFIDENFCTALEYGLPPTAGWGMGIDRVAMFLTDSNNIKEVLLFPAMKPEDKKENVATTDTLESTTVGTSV
T1 sequence (Q12809 whole entry): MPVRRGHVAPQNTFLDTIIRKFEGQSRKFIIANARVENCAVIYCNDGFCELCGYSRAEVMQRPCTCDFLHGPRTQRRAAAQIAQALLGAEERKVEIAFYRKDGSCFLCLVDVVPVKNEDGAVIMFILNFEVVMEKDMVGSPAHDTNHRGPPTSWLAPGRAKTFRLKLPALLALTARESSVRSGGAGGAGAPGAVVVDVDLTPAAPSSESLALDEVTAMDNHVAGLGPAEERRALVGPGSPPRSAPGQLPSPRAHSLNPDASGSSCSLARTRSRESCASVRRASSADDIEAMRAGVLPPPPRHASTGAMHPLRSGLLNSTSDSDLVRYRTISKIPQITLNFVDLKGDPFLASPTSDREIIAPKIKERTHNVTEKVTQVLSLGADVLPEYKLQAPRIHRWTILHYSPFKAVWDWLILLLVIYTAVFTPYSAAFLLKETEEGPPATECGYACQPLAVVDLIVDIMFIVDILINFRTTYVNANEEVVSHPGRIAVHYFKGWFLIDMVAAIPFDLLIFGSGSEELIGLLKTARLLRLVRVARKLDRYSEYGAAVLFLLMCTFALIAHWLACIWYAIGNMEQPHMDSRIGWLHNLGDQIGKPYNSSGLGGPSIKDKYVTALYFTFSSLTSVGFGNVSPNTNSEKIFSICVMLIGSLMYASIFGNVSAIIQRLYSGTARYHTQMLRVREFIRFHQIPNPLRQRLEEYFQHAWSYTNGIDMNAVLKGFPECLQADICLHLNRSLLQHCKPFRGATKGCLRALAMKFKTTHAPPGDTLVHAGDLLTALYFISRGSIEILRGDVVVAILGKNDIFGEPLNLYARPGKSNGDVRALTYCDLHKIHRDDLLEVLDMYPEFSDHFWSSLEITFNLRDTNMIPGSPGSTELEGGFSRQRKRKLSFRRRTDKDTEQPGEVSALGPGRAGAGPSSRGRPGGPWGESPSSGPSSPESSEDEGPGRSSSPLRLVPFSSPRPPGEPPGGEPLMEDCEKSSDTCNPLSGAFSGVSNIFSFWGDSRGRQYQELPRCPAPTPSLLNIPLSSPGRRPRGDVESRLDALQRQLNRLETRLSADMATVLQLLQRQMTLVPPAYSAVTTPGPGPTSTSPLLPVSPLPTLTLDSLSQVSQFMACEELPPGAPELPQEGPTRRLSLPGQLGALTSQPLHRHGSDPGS
CYP2C9, sequence (P11712 whole entry): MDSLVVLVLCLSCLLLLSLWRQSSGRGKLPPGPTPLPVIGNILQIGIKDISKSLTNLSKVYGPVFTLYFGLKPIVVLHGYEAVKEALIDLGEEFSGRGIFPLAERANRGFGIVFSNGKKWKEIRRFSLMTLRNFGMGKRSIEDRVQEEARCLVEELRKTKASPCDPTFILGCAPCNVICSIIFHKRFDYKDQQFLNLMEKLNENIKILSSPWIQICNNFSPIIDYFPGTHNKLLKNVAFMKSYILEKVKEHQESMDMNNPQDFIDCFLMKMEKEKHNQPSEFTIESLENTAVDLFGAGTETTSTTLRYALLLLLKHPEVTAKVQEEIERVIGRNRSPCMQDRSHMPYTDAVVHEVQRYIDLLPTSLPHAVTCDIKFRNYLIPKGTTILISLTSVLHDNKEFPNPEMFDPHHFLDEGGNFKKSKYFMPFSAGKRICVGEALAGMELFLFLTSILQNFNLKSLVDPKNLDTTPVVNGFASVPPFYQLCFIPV

Turning to `Cc1nc(N)c2c(F)c(F)c(SC3CCCCC3)c(F)c2n1` [DMU759, 7-(Cyclohexylthio)-5,6,8-trifluoro-2-methylquinazolin-4-amine], the EC50 in data set [1] was determined as 284 ± 20 nM; in data set [3] (setting [12]), 121 ± 19 nM; in [3] (setting [13]), 1540 ± 130 nM; in [3] (setting [14]), 16 ± 1 nM; in [6] (setting [15]), 1470 ± 56 nM; in [6] (setting [16]) it was 115 ± 0.1 nM. Moreover, the EC50 in data set [6] (setting [17]) was found to be 1320 ± 32 nM; in [7] (setting [18]), 134 ± 3 nM; in data set [7] (setting [19]), 565 ± 41 nM; in [7] (setting [20]), 14 ± 0.3 nM; in data set [9] (setting [21]) it was 1060 ± 33 nM; in data set [9] (WT, BSF, read-out: EC50 value) it was 112 ± 0.8 nM. Also, in data set [9] (setting [22]), the EC50 is 6480 ± 360 nM. Further, the inhibition at 10 min, 10 µM was 0% in [2] and 7.9 ± 0.8% in [11]. In addition, the “Fold-shift (relative to WT)” value in [3] (KRS1 OE) came out at 8 fold; in data set [3] (KRS1 S319L) it was 97 fold; in [6] (KRS1 OE, promastigote) it was 13 fold; in data set [6] (KRS1 S324L, promastigote), 12 fold; in data set [7] (KRS1 OE) it was 10 fold; in data set [7] (KRS1 S319L), 41 fold. Also, the “Fold-shift (relative to WT)” value stood at 9 fold in [9] (KRS1 OE, BSF) and 58 fold in [9] (KRS1 serine-to-leucine mutant (S323L; printed S319L in Table S1), BSF). In addition, the IC50 was 12.2 ± 1.1 µM in data set [4] and 7.17 µM in data set [8]. Also, in data set [5], the “reduction of parasite burden (parasitemia)” value is on record as “up to 81%”. The “resistance conferred by mutation of a single amino acid in the KRS1 active site” value in data set [7] (in vitro, parasite not stated (discussion)) is on record as greater than 20 fold. Further, the “extent of inhibition of the human KRS1 enzyme” value in [8] was “partial inhibition”. The “free blood concentration versus EC99” value in data set [10] (corrected for plasma protein binding, in words) is on record as “did not exceed the established EC99”. Besides, the “time of peak blood concentration” value in data set [10] (post dosing) is “one”. The “time total blood concentrations exceeded EC99” value in data set [10] (post dosing) is “up to 4 hours”.
With `Cc1nc(N)c2c(F)c(F)c(NC3CCCC3)c(F)c2n1` [DMU371, N7-Cyclopentyl-5,6,8-trifluoro-2-methylquinazoline-4,7-diamine], the EC50 turned out to be 5320 ± 2780 nM in [1]; 888 ± 117 nM in data set [3] (setting [12]); 589 ± 57 nM in data set [3] (setting [13]); 205 ± 24 nM in data set [3] (setting [14]); 1860 ± 63 nM in data set [6] (setting [15]); 524 ± 9 nM in [6] (setting [16]). Besides, the EC50 in [6] (setting [17]) worked out at 1740 ± 49 nM; in data set [7] (setting [18]) it was 624 ± 14 nM; in data set [7] (setting [19]) it was 326 ± 26 nM; in data set [7] (setting [20]) it was 63 ± 2.4 nM; in data set [9] (setting [21]) it was 4250 ± 170 nM; in data set [9] (WT, BSF, read-out: EC50 value), 607 ± 9 nM. Also, the EC50 in data set [9] (setting [22]) amounted to 1870 ± 71 nM. Moreover, the figures for the IC50 in data set [4] and in [8] were 7.6 ± 1.3 µM and 9.8 µM, respectively. For the same compound, the “extent of inhibition of the human KRS1 enzyme” value in data set [8] is listed as “partial inhibition”. In data set [11], this compound yielded an inhibition at 10 min, 10 µM of 8.6 ± 0.6%.

Source of the values: article PMC7617978, “Anti-trypanosomal quinazolines targeting lysyl-tRNA synthetases show partial efficacy in a mouse model of acute Chagas disease” (Science translational medicine, 2025).
